According to patent US20110177105A1, “Novel Selective Inhibitors of Ubiquitin Specific Protease 7, the Pharmaceutical Compositions Thereof and Their Therapeutic Applications” (priority 2010, published 2011):

Biological target: USP7 (Homo sapiens, UniProt Q93009)
Assay: HA-Ub-VS labeling of active DUBs in HCT116 cell lysates
Type: biochemical
Design: endogenous in cells; host or cells: HCT116 (inducible USP7 shRNA line) cell lysate
Conditions: for HA-Ub-VS-USP7 protein level: different doses (100 μM to 3 μM)
Excerpt: The C-terminally modified vinyl sulfone derivative of ubiquitin, UbVS, was clearly helpful for a direct visualization of active DUBs in cells. This tool, which binds covalently to the cysteine active site of deubiquitinating enzymes, was successfully applied to discover and characterize novel ubiquitin/ubiquitin-like proteases and to profile active deubiquitinating enzymes in normal, virus-infected, and malignant cells (Borodovsky et al., Chem Biol 2002, 9, 1149-1159, Hemelaar et al., Mol Cell Biol 2004, 24, 84-95, Ovaa et al., Proc Natl Acad Sci USA 2004 101, 2253-2258).
The HA-Ub-VS probe (Hemagglutin tag-Ubiquitin-Vinyl Sulfone) was used in this study to directly visualize the activity of all deubiquitinating enzymes from cell lysates. This tool was used to evaluate the activity/specificity of our small molecule compounds on USP7 relative to all deubiquitinating enzymes active in physiological conditions.
Inducible USP7 shRNA HCT116 cells (previously treated with or without Doxycycline (2 μg/ml) for 4 days) as well as HEK293 cells were harvested and lysed on ice with a non denaturating buffer containing Tris pH 7.4, 50 mM; NaCl, 150 mM; MgCl2, 5 mM; EDTA, 0.5 mM; DTT, 2 mM; ATP, 2 mM; NP40, 0.5% and glycerol, 10%. Samples were incubated at 4° C. for 1 hour and clarified. Proteins were then quantified by Bradford method (Bio-Rad Protein Assay). 25 μg of proteins from native cell lysates were treated with compounds of examples 14 and 5 (from 100 μM to 3 μM) or with NEM (N-Ethylmaleimide, a thiol-reactive compound, 5 mM) for 2 hours at room temperature. The ubiquitin labeling reaction was initiated by the addition of HA-Ub-VS (8 μg/ml) in labeling buffer (Tris pH 7.6, 50 mM; MgCl2, 5 mM; EDTA, 0.5 mM; DTT, 2 mM; ATP, 2 mM; sucrose, 250 mM) and incubated at room temperature for 30 min. Samples were next heated at 100° C. for 10 minutes and briefly sonicated. They were resolved by SDS-polyacrylamide gel electrophoresis (SDS-PAGE), transferred to a nitrocellulose membrane and probed with antibodies against USP7 (Bethyl Lab, A300-034A), HA (BabCO, MMS-101P), and actin (Sigma, A2066). Horseradish peroxidase (HRP)-conjugated anti-mouse (Jackson Laboratories, 115-035-003) or HRP-conjugated anti-rabbit (Cell Signaling, 7074) antibodies were used as secondary antibodies. Signals were detected by enhanced chemiluminescence (ECL; Amersham) according to the reagent manufacturer's instructions.

USP7, sequence (Q93009 whole entry): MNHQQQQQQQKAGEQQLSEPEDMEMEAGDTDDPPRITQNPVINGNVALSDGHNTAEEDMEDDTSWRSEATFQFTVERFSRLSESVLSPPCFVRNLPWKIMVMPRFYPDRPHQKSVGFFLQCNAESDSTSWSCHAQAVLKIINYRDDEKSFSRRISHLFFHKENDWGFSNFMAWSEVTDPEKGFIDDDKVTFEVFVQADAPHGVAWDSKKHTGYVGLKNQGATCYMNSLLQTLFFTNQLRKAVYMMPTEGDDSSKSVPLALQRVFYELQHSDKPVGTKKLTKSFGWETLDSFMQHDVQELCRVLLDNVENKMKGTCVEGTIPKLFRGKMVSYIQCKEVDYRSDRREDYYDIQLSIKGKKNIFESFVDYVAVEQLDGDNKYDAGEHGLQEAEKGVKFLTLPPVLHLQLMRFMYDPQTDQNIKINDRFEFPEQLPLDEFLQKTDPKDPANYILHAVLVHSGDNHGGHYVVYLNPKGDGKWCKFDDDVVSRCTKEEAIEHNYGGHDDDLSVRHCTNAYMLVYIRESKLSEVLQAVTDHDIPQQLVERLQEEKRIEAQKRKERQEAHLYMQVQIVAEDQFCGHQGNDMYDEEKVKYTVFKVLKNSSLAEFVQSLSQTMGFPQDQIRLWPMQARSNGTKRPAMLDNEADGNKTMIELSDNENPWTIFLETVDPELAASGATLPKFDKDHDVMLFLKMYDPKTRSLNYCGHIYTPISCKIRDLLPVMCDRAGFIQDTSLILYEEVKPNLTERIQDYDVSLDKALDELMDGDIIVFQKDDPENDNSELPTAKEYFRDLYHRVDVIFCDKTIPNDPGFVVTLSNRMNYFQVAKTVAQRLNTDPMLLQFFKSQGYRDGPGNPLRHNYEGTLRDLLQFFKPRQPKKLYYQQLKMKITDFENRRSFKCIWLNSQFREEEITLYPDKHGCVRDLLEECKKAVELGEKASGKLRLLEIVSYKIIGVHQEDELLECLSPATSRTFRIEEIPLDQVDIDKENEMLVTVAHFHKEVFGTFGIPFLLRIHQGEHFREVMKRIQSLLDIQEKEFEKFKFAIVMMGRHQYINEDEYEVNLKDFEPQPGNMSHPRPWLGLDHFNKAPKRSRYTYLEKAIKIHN

| SMILES | HA-Ub-VS-USP7 protein level | HA-Ub-VS labeled DUB bands after treatment (HA-Ub-VS-USP7 band) (fixed dose 50 μM, anti-HA immunoblot) |
| --- | --- | --- |
| CCN(CCCNC(=O)c1ccc2c(Cl)c3c(nc2c1)CCCC3)Cc1ccccc1 [Example 5, 9-Chloro-5,6,7,8-tetrahydro-acridine-3-carboxylic acid [3-(benzyl-ethyl-amino)-propyl]-amide] | specific and dose-dependent decrease |  |
| CN(CCCNC(=O)c1ccc2c(Cl)c3c(nc2c1)CCCC3)Cc1ccccc1 [Example 14, 9-Chloro-5,6,7,8-tetrahydro-acridine-3-carboxylic acid [3-(benzyl-methyl-amino)-propyl]-amide] | specific and dose-dependent decrease | only one band was decreased |
